Reference: patent US12365696B2, “Small-molecule focal adhesion kinase (FAK) inhibitors” (DANA-FARBER CANCER INSTITUTE, INC., priority 2019, dated 2025)
Where two headings read alike, the source gives them in different places.

Legend:
Assay in all cases: KINOMEscan
Format in all cases: binding
[1] = molecular target: ABL1(F317L)-phosphorylated (Homo sapiens (Human), UniProt P00519, F317L); conditions: 10000 nM, read-out: Percent Control
ACVR2A = ACVR2A (Homo sapiens (Human), UniProt P27037); conditions: 10000 nM, read-out: Percent Control
ADCK3 = ADCK3 (Homo sapiens (Human), UniProt Q8NI60); conditions: ADCK3, 10000 nM; read-out: Percent Control
BUB1 = BUB1 (Homo sapiens (Human), UniProt O43683); conditions: BUB1, 10000 nM; read-out: Percent Control
CAMK1B = CAMK1B (Homo sapiens (Human), UniProt Q6P2M8); conditions: 10000 nM, read-out: Percent Control
CAMKK1 = CAMKK1 (Homo sapiens (Human), UniProt Q8N5S9); conditions: CAMKK1, 10000 nM; read-out: Percent Control
CHEK2 = CHEK2 (Homo sapiens (Human), UniProt O96017); conditions: CHEK2, 10000 nM; read-out: Percent Control
CSF1R = CSF1R (Homo sapiens (Human), UniProt P07333); conditions: 10000 nM, read-out: Percent Control
DCAMKL3 = DCAMKL3 (Homo sapiens (Human), UniProt Q9C098); conditions: DCAMKL3, 10000 nM; read-out: Percent Control
EPHA4 = EPHA4 (Homo sapiens (Human), UniProt P54764); conditions: EPHA4, 10000 nM; read-out: Percent Control
EPHA6 = EPHA6 (Homo sapiens (Human), UniProt Q9UF33); conditions: EPHA6, 10000 nM; read-out: Percent Control
FRK = FRK (Homo sapiens (Human), UniProt P42685); conditions: 10000 nM, read-out: Percent Control
GCN2(Kin.Dom.2, S808G) = GCN2(Kin.Dom.2, S808G) (Homo sapiens (Human), UniProt Q9P2K8, S808G); conditions: 10000 nM, read-out: Percent Control
HPK1 = HPK1 (Homo sapiens (Human), UniProt Q92918); conditions: HPK1, 10000 nM; read-out: Percent Control
IKK-epsilon = IKK-epsilon (Homo sapiens (Human), UniProt Q14164); conditions: 10000 nM, read-out: Percent Control
[2] = molecular target: JAK3(JH1domain-catalytic) (Homo sapiens (Human), UniProt P52333); conditions: 10000 nM, read-out: Percent Control
MAP3K15 = MAP3K15 (Homo sapiens (Human), UniProt Q6ZN16); conditions: MAP3K15, 10000 nM; read-out: Percent Control
MST1 = MST1 (Homo sapiens (Human), UniProt Q13043); conditions: MST1, 10000 nM; read-out: Percent Control
NDR2 = NDR2 (Homo sapiens (Human), UniProt Q9Y2H1); conditions: NDR2, 10000 nM; read-out: Percent Control
NEK6 = NEK6 (Homo sapiens (Human), UniProt Q9HC98); conditions: NEK6, 10000 nM; read-out: Percent Control
PKNB(M. tuberculosis) = PKNB(M. tuberculosis) (Mycobacterium tuberculosis (strain ATCC 25618 / H37Rv), UniProt P9WI81); conditions: read-out: Percent Control
PLK2 = PLK2 (Homo sapiens (Human), UniProt Q9NYY3); conditions: PLK2, 10000 nM; read-out: Percent Control
ROCK2 = ROCK2 (Homo sapiens (Human), UniProt O75116); conditions: ROCK2, 10000 nM; read-out: Percent Control
[3] = molecular target: RPS6KA5(Kin.Dom.1-N-terminal) (Homo sapiens (Human), UniProt O75582); conditions: 10000 nM, read-out: Percent Control
[4] = molecular target: RSK1(Kin.Dom.1-N-terminal) (Homo sapiens (Human), UniProt Q15418); conditions: 10000 nM, read-out: Percent Control
TAOK1 = TAOK1 (Homo sapiens (Human), UniProt Q7L7X3); conditions: TAOK1, 10000 nM; read-out: Percent Control
TEC = TEC (Homo sapiens (Human), UniProt P42680); conditions: 10000 nM, read-out: Percent Control
TIE1 = TIE1 (Homo sapiens (Human), UniProt P35590); conditions: TIE1, 10000 nM; read-out: Percent Control
TIE2 = TIE2 (Homo sapiens (Human), UniProt Q02763); conditions: TIE2, 10000 nM; read-out: Percent Control
TRKC = TRKC (Homo sapiens (Human), UniProt Q16288); conditions: 10000 nM, read-out: Percent Control
TYRO3 = TYRO3 (Homo sapiens (Human), UniProt Q06418); conditions: TYRO3, 10000 nM; read-out: Percent Control
YANK3 = YANK3 (Homo sapiens (Human), UniProt Q86UX6); conditions: YANK3, 10000 nM; read-out: Percent Control
ZAP70 = ZAP70 (Homo sapiens (Human), UniProt P43403); conditions: ZAP70, 10000 nM; read-out: Percent Control

Sequence of TAOK1 (Q7L7X3 whole entry): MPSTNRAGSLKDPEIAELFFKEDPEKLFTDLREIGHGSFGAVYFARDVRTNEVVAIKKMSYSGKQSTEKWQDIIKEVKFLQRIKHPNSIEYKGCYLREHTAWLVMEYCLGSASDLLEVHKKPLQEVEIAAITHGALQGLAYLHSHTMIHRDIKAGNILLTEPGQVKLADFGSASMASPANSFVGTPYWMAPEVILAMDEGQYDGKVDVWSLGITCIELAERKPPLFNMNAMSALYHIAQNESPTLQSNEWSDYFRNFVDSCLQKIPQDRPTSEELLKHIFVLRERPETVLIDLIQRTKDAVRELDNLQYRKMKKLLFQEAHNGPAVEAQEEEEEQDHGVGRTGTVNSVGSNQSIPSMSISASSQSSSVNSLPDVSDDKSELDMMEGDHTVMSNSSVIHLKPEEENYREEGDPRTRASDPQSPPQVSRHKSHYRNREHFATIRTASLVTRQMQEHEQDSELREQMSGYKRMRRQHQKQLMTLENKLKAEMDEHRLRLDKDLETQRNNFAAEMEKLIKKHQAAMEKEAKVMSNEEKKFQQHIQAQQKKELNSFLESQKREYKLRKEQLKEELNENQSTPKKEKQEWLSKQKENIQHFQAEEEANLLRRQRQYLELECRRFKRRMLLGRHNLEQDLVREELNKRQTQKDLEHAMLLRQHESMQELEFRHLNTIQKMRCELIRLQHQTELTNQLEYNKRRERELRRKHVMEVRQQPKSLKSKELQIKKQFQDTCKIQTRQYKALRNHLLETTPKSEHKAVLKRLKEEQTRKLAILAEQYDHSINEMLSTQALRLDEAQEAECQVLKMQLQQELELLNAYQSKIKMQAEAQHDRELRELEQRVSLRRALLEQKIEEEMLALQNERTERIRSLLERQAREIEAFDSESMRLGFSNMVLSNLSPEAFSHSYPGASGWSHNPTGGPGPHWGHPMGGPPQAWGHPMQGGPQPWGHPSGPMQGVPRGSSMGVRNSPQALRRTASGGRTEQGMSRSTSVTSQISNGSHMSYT
Sequence of TIE2 (Q02763 23-1124): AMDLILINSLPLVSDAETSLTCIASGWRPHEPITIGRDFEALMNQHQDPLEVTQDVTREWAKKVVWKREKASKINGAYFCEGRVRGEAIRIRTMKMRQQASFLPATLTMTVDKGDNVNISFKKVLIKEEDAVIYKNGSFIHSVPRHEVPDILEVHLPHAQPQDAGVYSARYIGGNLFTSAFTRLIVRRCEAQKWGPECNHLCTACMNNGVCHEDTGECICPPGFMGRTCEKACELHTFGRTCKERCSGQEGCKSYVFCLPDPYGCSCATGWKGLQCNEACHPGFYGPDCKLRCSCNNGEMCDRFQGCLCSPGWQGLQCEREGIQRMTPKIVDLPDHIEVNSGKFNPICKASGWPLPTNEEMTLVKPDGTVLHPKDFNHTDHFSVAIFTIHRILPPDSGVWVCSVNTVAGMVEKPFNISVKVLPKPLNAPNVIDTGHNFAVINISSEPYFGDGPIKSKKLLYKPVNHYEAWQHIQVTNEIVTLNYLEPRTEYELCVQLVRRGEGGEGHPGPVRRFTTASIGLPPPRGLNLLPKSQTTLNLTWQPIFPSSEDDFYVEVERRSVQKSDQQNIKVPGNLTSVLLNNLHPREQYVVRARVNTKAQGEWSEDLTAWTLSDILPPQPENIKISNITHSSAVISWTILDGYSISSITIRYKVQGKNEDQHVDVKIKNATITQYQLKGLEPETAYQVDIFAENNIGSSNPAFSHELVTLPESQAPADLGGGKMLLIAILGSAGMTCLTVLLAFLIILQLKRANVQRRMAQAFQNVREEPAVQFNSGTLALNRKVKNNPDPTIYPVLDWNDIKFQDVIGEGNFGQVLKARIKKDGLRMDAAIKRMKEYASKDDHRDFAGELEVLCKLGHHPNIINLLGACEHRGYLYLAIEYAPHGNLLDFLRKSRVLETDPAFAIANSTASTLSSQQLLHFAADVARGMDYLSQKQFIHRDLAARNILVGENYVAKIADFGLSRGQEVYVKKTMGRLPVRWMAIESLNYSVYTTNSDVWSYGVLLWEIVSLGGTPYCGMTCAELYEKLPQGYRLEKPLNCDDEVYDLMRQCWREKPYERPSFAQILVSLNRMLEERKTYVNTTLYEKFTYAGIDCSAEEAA
Sequence of DCAMKL3 (Q9C098 whole entry, looked up): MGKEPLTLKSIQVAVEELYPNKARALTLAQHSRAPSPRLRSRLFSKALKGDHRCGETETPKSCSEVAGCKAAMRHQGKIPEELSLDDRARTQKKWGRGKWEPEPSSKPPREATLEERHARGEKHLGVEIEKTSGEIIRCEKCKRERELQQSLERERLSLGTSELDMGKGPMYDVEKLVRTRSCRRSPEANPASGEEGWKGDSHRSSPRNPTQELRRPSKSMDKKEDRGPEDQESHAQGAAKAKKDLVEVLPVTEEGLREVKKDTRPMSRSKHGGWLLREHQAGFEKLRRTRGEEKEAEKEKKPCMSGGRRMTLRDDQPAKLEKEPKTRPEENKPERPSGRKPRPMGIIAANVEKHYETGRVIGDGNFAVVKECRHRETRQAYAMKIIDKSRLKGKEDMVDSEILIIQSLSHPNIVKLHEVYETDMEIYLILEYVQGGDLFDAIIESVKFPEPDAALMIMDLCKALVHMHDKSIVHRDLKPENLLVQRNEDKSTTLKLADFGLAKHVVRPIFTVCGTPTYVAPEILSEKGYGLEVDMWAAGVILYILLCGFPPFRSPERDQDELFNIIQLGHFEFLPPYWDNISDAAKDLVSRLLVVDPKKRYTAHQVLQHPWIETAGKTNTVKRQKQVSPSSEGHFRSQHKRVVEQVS
Sequence of RPS6KA5(Kin.Dom.1-N-terminal) (O75582 49-318): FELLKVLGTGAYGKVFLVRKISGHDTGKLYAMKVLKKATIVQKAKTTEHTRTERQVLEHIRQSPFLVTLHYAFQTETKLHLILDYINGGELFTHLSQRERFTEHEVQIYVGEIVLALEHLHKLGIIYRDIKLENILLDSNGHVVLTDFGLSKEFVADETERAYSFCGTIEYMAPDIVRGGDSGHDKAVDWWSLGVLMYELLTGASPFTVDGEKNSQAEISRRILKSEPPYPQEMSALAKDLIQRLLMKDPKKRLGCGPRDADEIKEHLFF
Sequence of PLK2 (Q9NYY3 whole entry): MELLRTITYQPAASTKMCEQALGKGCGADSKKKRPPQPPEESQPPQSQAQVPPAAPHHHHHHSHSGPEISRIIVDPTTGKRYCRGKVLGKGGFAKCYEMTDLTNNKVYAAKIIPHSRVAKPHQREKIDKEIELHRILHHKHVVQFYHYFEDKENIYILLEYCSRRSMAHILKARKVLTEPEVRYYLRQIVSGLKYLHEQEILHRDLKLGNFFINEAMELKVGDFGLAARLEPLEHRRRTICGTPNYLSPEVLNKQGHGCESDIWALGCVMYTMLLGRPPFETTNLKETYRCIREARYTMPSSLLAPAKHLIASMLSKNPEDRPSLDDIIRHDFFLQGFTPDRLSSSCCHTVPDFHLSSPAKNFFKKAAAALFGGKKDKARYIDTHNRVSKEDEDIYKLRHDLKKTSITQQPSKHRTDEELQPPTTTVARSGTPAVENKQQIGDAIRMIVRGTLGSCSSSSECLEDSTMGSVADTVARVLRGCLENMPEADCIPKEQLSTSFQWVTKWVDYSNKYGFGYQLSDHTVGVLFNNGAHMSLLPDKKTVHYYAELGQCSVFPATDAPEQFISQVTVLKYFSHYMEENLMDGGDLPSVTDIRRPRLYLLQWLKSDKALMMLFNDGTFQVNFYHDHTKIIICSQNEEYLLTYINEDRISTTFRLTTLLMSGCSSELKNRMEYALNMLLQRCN
Sequence of TEC (P42680 whole entry): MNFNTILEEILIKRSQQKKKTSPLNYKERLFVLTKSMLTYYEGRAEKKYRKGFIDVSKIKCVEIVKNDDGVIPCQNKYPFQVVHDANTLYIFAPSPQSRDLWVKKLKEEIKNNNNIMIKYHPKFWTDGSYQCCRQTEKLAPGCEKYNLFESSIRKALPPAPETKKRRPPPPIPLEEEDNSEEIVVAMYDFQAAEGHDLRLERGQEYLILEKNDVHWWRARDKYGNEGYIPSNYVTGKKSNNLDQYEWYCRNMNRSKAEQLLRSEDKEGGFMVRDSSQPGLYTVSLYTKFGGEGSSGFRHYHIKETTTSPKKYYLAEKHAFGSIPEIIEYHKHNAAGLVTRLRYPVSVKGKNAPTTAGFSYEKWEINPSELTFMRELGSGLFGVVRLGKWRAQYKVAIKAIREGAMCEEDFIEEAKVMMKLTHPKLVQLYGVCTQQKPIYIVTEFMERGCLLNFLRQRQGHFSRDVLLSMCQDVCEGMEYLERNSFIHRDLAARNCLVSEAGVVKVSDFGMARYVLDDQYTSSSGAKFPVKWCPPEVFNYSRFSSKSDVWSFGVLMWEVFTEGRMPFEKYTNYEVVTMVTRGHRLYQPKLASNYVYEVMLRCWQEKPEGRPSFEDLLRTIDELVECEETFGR
Sequence of MST1 (Q13043 whole entry): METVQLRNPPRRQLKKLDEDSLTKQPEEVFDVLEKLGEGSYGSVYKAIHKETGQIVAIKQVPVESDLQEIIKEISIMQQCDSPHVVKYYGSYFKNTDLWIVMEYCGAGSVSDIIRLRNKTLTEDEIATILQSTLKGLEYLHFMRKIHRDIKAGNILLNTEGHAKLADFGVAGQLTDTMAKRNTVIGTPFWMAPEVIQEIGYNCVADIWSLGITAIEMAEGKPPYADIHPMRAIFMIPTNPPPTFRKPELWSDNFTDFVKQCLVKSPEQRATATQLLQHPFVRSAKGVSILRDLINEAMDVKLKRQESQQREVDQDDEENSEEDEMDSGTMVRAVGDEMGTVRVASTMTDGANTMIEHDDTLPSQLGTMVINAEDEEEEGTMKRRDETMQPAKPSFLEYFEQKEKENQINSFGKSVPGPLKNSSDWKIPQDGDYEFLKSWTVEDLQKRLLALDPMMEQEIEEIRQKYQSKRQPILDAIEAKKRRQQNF

SMILES | remaining binding at 10 µM [1] [%] | remaining binding at 10 µM (ACVR2A) [%] | remaining binding at 10 µM (ADCK3) [%] | remaining binding at 10 µM (BUB1) [%] | remaining binding at 10 µM (CAMK1B) [%] | remaining binding at 10 µM (CAMKK1) [%] | remaining binding at 10 µM (CHEK2) [%] | remaining binding at 10 µM (CSF1R) [%] | remaining binding at 10 µM (DCAMKL3) [%] | remaining binding at 10 µM (EPHA4) [%] | remaining binding at 10 µM (EPHA6) [%] | remaining binding at 10 µM (FRK) [%] | remaining binding at 10 µM (GCN2(Kin.Dom.2, S808G)) [%] | remaining binding at 10 µM (HPK1) [%] | remaining binding at 10 µM (IKK-epsilon) [%] | remaining binding at 10 µM [2] [%] | remaining binding at 10 µM (MAP3K15) [%] | remaining binding at 10 µM (MST1) [%] | remaining binding at 10 µM (NDR2) [%] | remaining binding at 10 µM (NEK6) [%] | also measured
COc1cc(N2CCC(N3CCN(C)CC3)CC2)ccc1Nc1ncc2c(n1)N(C)c1sc(C)nc1C(=O)N2 [Compound 3, 6-((2-methoxy-4-(4-(4-methylpiperazin-1-yl)piperidin-1-yl)phenyl)amino)-2,4-dimethyl-4,9-dihydro-10H-pyrimido[5,4-b]thiazolo[5,4-e][1,4]diazepin-10-one] | 10 | 76 | 54 | 100 | 95 | 84 | 72 | 36 | 81 | 87 | 83 | 37 | 88 | 68 | 78 | 83 | 90 | 89 | 86 | 78 | remaining binding at 10 µM (PKNB(M. tuberculosis)): 91%; remaining binding at 10 µM (PLK2): 100%; remaining binding at 10 µM (ROCK2): 100%; remaining binding at 10 µM [3]: 70%; remaining binding at 10 µM [4]: 78%; remaining binding at 10 µM (TAOK1): 100%; remaining binding at 10 µM (TEC): 69%; remaining binding at 10 µM (TIE1): 80%; remaining binding at 10 µM (TIE2): 83%; remaining binding at 10 µM (TRKC): 100%; remaining binding at 10 µM (TYRO3): 92%; remaining binding at 10 µM (YANK3): 68%; remaining binding at 10 µM (ZAP70): 100%
COc1cc(N2CCC(N3CCN(C)CC3)CC2)ccc1Nc1ncc2c(n1)N(C)c1sc(C)nc1C(=O)N2C [Compound 5, 6-((2-methoxy-4-(4-(4-methylpiperazin-1-yl)piperidin-1-yl)phenyl)amino)-2,4,9-trimethyl-4,9-dihydro-10H-pyrimido[5,4-b]thiazolo[5,4-e][1,4]diazepin-10-one] | 39 | 97 | 88 | 100 | 92 | 100 | 100 | 80 | 86 | 68 | 86 | 99 | 94 | 100 | 100 | 100 | 84 | 100 | 64 | 90 | remaining binding at 10 µM (PKNB(M. tuberculosis); PKNB(M. tuberculosis), 10000 nM): 98%; remaining binding at 10 µM (PLK2): 62%; remaining binding at 10 µM (ROCK2): 100%; remaining binding at 10 µM [3]: 91%; remaining binding at 10 µM [4]: 83%; remaining binding at 10 µM (TAOK1): 80%; remaining binding at 10 µM (TEC): 100%; remaining binding at 10 µM (TIE1): 96%; remaining binding at 10 µM (TIE2): 100%; remaining binding at 10 µM (TRKC): 100%; remaining binding at 10 µM (TYRO3): 88%; remaining binding at 10 µM (YANK3): 98%; remaining binding at 10 µM (ZAP70): 100%
